Results: patent publication US8492559B2, “Substituted indole compounds” (Gruenenthal GmbH, priority 2009, dated 2013)

Biological target: T1, B1R receptor of the rat (rB1R) (Rattus norvegicus, UniProt P97583)
T1 construct: expressed in transfected cells; host or cells: CHO K1 cells
T1 sequence (P97583 1-337): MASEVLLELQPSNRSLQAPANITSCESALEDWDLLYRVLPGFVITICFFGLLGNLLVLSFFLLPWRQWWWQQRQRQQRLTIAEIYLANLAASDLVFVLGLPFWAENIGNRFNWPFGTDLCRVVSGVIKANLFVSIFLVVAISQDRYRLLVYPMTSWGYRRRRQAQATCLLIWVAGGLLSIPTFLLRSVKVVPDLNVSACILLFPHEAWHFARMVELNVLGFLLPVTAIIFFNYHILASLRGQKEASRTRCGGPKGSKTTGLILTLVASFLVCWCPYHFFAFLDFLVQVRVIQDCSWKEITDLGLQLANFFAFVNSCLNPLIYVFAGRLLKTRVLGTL
Assay: Functional investigation on the bradykinin 1 receptor (B1R), FLIPR Ca2+ assay, rB1R cells
Type: cell-based
Conditions: 10 μM test substance; CHO K1 cells with rat B1R; agonist Des-Arg9 bradykinin; % of maximum achievable inhibition
Method: The indication in % activation is based on the Ca^2+ signal after addition of Lys-Des-[…] bradykinin (0.5 nM) or Des-[…] bradykinin (100 nM). Antagonists lead to a suppression of the Ca^2+ influx following administration of the agonist. The % inhibition in comparison with the maximum achievable inhibition is indicated. […] According to this assay, the Ca^2+ inflow through the channel is quantified with the aid of a Ca^2+-sensitive dye (Fluo-4 type, Molecular Probes Europe BV, Leiden, Netherlands) in a fluorescent imaging plate reader (FLIPR, Molecular Devices, Sunnyvale, USA). […] For functional investigations these cells are plated-out onto black 96-well plates with a clear base (BD Biosciences, Heidelberg, Germany or Greiner, Frickenhausen, Germany) in a density of 20,000-35,000 cells/well. Overnight the cells are incubated at 37° C. and 5% CO2 in culture medium (hB1R cells: Ham's Nutrient Mixture F12, Gibco Invitrogen GmbH, Karlsruhe, Germany or DMEM, Sigma-Aldrich, Taufkirchen, Germany; rB1R cells: D-MEM/F12, Gibco Invitrogen, Karlsruhe, Germany) with 10 vol. % FBS (foetal bovine serum, Gibco Invitrogen GmbH, Karlsruhe, Germany or PAN Biotech GmbH, Aidenbach, Germany). On the following day the cells are loaded with 2.13 μM Fluo-4 (Molecular Probes Europe BV, Leiden, Netherlands) in HBSS buffer (Hank's buffered saline solution, Gibco Invitrogen GmbH, Karlsruhe, Germany) with 2.5 mM probenecid (Sigma-Aldrich, Taufkirchen, Germany) and 10 mM HEPES (Sigma-Aldrich, Taufkirchen, Germany) for 60 min at 37° C. […] Sigma-Aldrich, Taufkirchen, Germany), 5.6 mM glucose and 0.05% gelatine (Merck KGaA, Darmstadt, Germany) is added. After a further incubation of 20 minutes at room temperature, the plates are inserted into the FLIPR for Ca^2+ measurement. Alternatively they are washed with buffer A (15 mM HEPES, 80 mM NaCl, 5 mM KCl, 1.2 mM CaCl2, 0.7 mM MgSO4, 2 g/l glucose, 2.5 mM probenecid) and loaded with buffer A with added 2.5 μM Fluo-4 and 0.025% Pluronic F127 (Sigma-Aldrich, Taufkirchen, Germany). The cells are then washed twice with buffer A and incubated for 30 minutes with buffer A, which additionally contains 0.05% BSA and 0.05% gelatine, at room temperature and then used for Ca^2+ measurement in the FLIPR. The Ca^2+-dependent fluorescence is measured here before and after addition of substances (λex=488 nm, λem=540 nm). The quantification is performed by measuring the highest fluorescence intensity (FC, fluorescence counts) over time. The FLIPR protocol comprises two additions of substance. […] Lys-Des-[…] bradykinin>=50 nM; rB1R: […] Antagonists lead to a suppression of the Ca^2+ inflow. The % inhibition in comparison with the maximum achievable inhibition is calculated. The substances are added in varying concentrations in order to determine the IC50 value. Double or triple determinations (n=2 or n=3) are performed and these are repeated in at least one further independent experiment (N>=2).

B1R antagonism, rat [10 μM] % inhibition | SMILES
99% | COc1cc(C)c(S(=O)(=O)Nc2ccc3ccn(CC(=O)N4CCN(CC5CCN(C)CC5)CC4)c3c2)c(C)c1 [G_CC-4, 4-Methoxy-2,6-dimethyl-N-[1-[2-[4-[(1-methyl-piperdin-4-yl)-methyl]-piperazin-1-yl]-2-oxo-ethyl]-1H-indol-6-yl]-benzenesulfonic acid amide]

Same assay, conditions: CHO-K1, 10 μM test substance; CHO K1 cells with rat B1R; agonist Des-Arg9 bradykinin; % of maximum achievable inhibition; read-out: B1R antagonism, rat [10 μM] % inhibition

inhibition at 10 µM | SMILES
86% | COc1cc(C)c(S(=O)(=O)Nc2cccc3ccn(CC(=O)N(C)CCCN4CCC(c5ccccc5)(N(C)C)CC4)c23)c(C)c1 [G_CC-14, N-[3-(4-Dimethylamino-4-phenyl-piperidin-1-yl)-propyl]-2-[7-[[(4-methoxy-2,6-dimethyl-phenyl)sulfonyl]amino]-1H-indol-1-yl]-N-methyl-acetamide]
82% | COc1cc(C)c(S(=O)(=O)Nc2ccc3ccn(CC(=O)N4CCN(c5ncccn5)CC4)c3c2)c(C)c1 [G_CC-3, 4-Methoxy-2,6-dimethyl-N-[1-[2-oxo-2-(4-pyrimidin-2-yl-piperazin-1-yl)-ethyl]-1H-indol-6-yl]-benzenesulfonic acid amide]
72% | CN(CCCN1CCN(c2ccncc2)CC1)C(=O)CCn1ccc2ccc(N3Cc4cccc(Cl)c4C3=O)cc21 [G_CC-119, 3-[6-(4-Chloro-3-oxo-1,2-dihydro-isoindol-2-yl)-1H-indol-1-yl]-N-methyl-N-[3-(4-pyridin-4-yl-piperazin-1-yl)-propyl]-propionamide]
52% | CN(CCCN1CCN(c2ccncc2)CC1)C(=O)Cn1ccc2ccc(N3Cc4cccc(Cl)c4C3=O)cc21 [G_CC-138, 2-[6-(4-Chloro-3-oxo-1,2-dihydro-isoindol-2-yl)-1H-indol-1-yl]-N-methyl-N-[3-(4-pyridin-4-yl-piperazin-1-yl)-propyl]-acetamide]
100% | O=C(CCn1ccc2ccc(N3Cc4cccc(Cl)c4C3=O)cc21)N1CCN(c2ccncc2)CC1 [G_CC-63, 7-Chloro-2-[1-[3-oxo-3-(4-pyridin-4-yl-piperazin-1-yl)-propyl]-1H-indol-6-yl]-2,3-dihydro-isoindol-1-one]
100% | O=C(CCn1ccc2cccc(NS(=O)(=O)c3ccccc3C(F)(F)F)c21)N1CCC2(CC1)CCN(c1ccncc1)CC2 [G_CC-52, N-[1-[3-Oxo-3-(3-pyridin-4-yl-3,9-diazaspiro[5.5]undecan-9-yl)-propyl]-1H-indol-7-yl]-2-(trifluoromethyl)-benzenesulfonic acid amide]
53% | Cc1cc(S(=O)(=O)Nc2ccc3ccn(CCC(=O)N4CCC5(CC4)CCN(c4ccncc4)CC5)c3c2)c(C)cc1Cl [G_CC-65, 4-Chloro-2,5-dimethyl-N-[1-[3-oxo-3-(3-pyridin-4-yl-3,9-diazaspiro[5.5]undecan-9-yl)-propyl]-1H-indol-6-yl]-benzenesulfonic acid amide]
100% | COc1cc(C)c(S(=O)(=O)Nc2ccc3ccn(CC(=O)N4CCC(OCCN5CCCC5)(c5cccnc5)CC4)c3c2)c(C)c1 [G_CC-57, 4-Methoxy-2,6-dimethyl-N-[1-[2-oxo-2-[4-pyridin-3-yl-4-(2-pyrrolidin-1-yl-ethoxy)-piperidin-1-yl]-ethyl]-1H-indol-6-yl]-benzenesulfonic acid amide]
93% | COc1cc(C)c(S(=O)(=O)Nc2cccc3ccn(CCC(=O)NCCN4CCC(c5cccs5)(N(C)C)CC4)c23)c(C)c1 [G_CC-51, N-[2-(4-Dimethylamino-4-thiophen-2-yl-piperidin-1-yl)-ethyl]-3-[7-[[(4-methoxy-2,6-dimethyl-phenyl)sulfonyl]amino]-1H-indol-1-yl]-propionamide]
71% | O=C(CCn1ccc2ccc(N3Cc4cccc(Cl)c4C3=O)cc21)NCCC1CCN(c2ccncc2)CC1 [G_CC-72, 3-[6-(4-Chloro-3-oxo-1,2-dihydro-isoindol-2-yl)-1H-indol-1-yl]-N-[2-(1-pyridin-4-yl-piperidin-4-yl)-ethyl]-propionamide]
58% | COc1cc(C)c(S(=O)(=O)Nc2cccc3ccn(CC(=O)N4CCC5(CCN(Cc6ccccc6)C5)C4)c23)c(C)c1 (stereo not drawn) [G_CC-13, N-[1-[2-(3-Benzyl-3,7-diazaspiro[4.4]nonan-7-yl)-2-oxo-ethyl]-1H-indol-7-yl]-4-methoxy-2,6-dimethyl-benzenesulfonic acid amide]
82% | Cc1cc(S(=O)(=O)Nc2cccc3ccn(CC(=O)NCCC4CCN(c5ccncc5)CC4)c23)c(C)cc1Cl [G_CC-28, 2-[7-[[(4-Chloro-2,5-dimethyl-phenyl)sulfonyl]amino]-1H-indol-1-yl]-N-[2-(1-pyridin-4-yl-piperidin-4-yl)-ethyl]-acetamide]
72% | COc1cc(C)c(S(=O)(=O)Nc2ccc3ccn(CC(=O)N4CCC(CCN5CCCC5)CC4)c3c2)c(C)c1 [G_CC-120, 4-Methoxy-2,6-dimethyl-N-[1-[2-oxo-2-[4-(2-pyrrolidin-1-yl-ethyl)-piperidin-1-yl]-ethyl]-1H-indol-6-yl]-benzenesulfonic acid amide]
71% | COc1cc(C)c(S(=O)(=O)Nc2ccc3ccn(CC(=O)N4CC5CC4CN5Cc4ccc(F)cc4)c3c2)c(C)c1 (stereo not drawn) [G_CC-33, N-[1-[2-[2-[(4-Fluorophenyl)-methyl]-2,5-diazabicyclo[2.2.1]heptan-5-yl]-2-oxo-ethyl]-1H-indol-6-yl]-4-methoxy-2,6-dimethyl-benzenesulfonic acid amide]
96% | O=C(Cn1ccc2cccc(NS(=O)(=O)c3cccc4ccccc34)c21)N1CCC2(CC1)CCN(c1ccncc1)CC2 [G_CC-38, N-[1-[2-Oxo-2-(3-pyridin-4-yl-3,9-diazaspiro[5.5]undecan-9-yl)-ethyl]-1H-indol-7-yl]-naphthalene-1-sulfonic acid amide]
73% | COc1cc(C)c(S(=O)(=O)Nc2cccc3ccn(CC(=O)N4CCN(c5ncccn5)CC4)c23)c(C)c1 [G_CC-6, 4-Methoxy-2,6-dimethyl-N-[1-[2-oxo-2-(4-pyrimidin-2-yl-piperazin-1-yl)-ethyl]-1H-indol-7-yl]-benzenesulfonic acid amide]
74% | COc1cc(C)c(S(=O)(=O)Nc2ccc3ccn(CCC(=O)N(C)CCCN4CCN(c5ccncc5)CC4)c3c2)c(C)c1 [G_CC-116, 3-[6-[[(4-Methoxy-2,6-dimethyl-phenyl)sulfonyl]amino]-1H-indol-1-yl]-N-methyl-N-[3-(4-pyridin-4-yl-piperazin-1-yl)-propyl]-propionamide]
87% | COc1cc(C)c(S(=O)(=O)Nc2ccc3ccn(CC(=O)N(C)CCCN4CCC(c5ccccc5)(N(C)C)CC4)c3c2)c(C)c1 [G_CC-11, N-[3-(4-Dimethylamino-4-phenyl-piperidin-1-yl)-propyl]-2-[6-[[(4-methoxy-2,6-dimethyl-phenyl)sulfonyl]amino]-1H-indol-1-yl]-N-methyl-acetamide]

SMILES | inhibition at 10 µM
Cc1cc(S(=O)(=O)Nc2cccc3ccn(CCC(=O)NCCC4CCN(c5ccncc5)CC4)c23)c(C)cc1Cl [G_CC-70, 3-[7-[[(4-Chloro-2,5-dimethyl-phenyl)sulfonyl]amino]-1H-indol-1-yl]-N-[2-(1-pyridin-4-yl-piperidin-4-yl)-ethyl]-propionamide] | 100%
COc1cc(C)c(S(=O)(=O)Nc2cccc3ccn(CCC(=O)N4CCN(C5CCN(C)CC5)CC4)c23)c(C)c1 [G_CC-40, 4-Methoxy-2,6-dimethyl-N-[1-[3-[4-(1-methyl-piperidin-4-yl)-piperazin-1-yl]-3-oxo-propyl]-1H-indol-7-yl]-benzenesulfonic acid amide] | 86%
